Measured values from BindingDB's records for doi:10.1021/jm00045a017 (National Taiwan University, 1994).

Assay: binding affinity against sigma Opioid receptor was measured by using labeled ligand [3H]-SKF- 10,047 (1 nM)
`Oc1cccc2c1O[C@H]1[C@@H](O)CC[C@H]3CN(CC4CC4)CC[C@@]231` [(4aR,7S,7aR,12bS)-3-Cyclopropylmethyl-2,3,4,4a,5,6,7,7a-octahydro-1H-8-oxa-3-aza-benzo[d]fluorene-7,9-diol] gave a Ki of 580 nM. Molecule `COc1cccc2c1O[C@H]1[C@@H](O)CC[C@H]3CN(CC4CC4)CC[C@@]231` [(4aR,7S,7aR,12bS)-3-Cyclopropylmethyl-9-methoxy-2,3,4,4a,5,6,7,7a-octahydro-1H-8-oxa-3-aza-benzo[d]fluoren-7-ol] has a Ki of 410 nM. With `O=C1CC[C@H]2CN(CC3CC3)CC[C@@]23c2cccc(O)c2O[C@@H]13` [(4aR,7aR,12bS)-3-Cyclopropylmethyl-9-hydroxy-2,3,4,4a,5,6-hexahydro-1H-8-oxa-3-aza-benzo[d]fluoren-7-one] the Ki was 710 nM. With `COc1cccc2c1O[C@H]1C(=O)CC[C@H]3CN(CC4CC4)CC[C@@]231` [(4aR,7aR,12bS)-3-Cyclopropylmethyl-9-methoxy-2,3,4,4a,5,6-hexahydro-1H-8-oxa-3-aza-benzo[d]fluoren-7-one] the Ki was 440 nM. In the case of `CN1CC[C@]23c4cccc(O)c4O[C@H]2C(=O)CC[C@H]3C1` [(4aR,7aR,12bS)-9-Hydroxy-3-methyl-2,3,4,4a,5,6-hexahydro-1H-8-oxa-3-aza-benzo[d]fluoren-7-one], the Ki is reported as 2090 nM. Work on `Oc1cccc2c1O[C@H]1[C@H](O)CC[C@@H]3CN(CC4CC4)CC[C@@]231` [(4aS,7R,7aR,12bS)-3-Cyclopropylmethyl-2,3,4,4a,5,6,7,7a-octahydro-1H-8-oxa-3-aza-benzo[d]fluorene-7,9-diol] yielded a Ki of 300 nM. With `O=C1CC[C@@H]2CN(CC3CC3)CC[C@@]23c2cccc(O)c2O[C@@H]13` [(4aS,7aR,12bS)-3-Cyclopropylmethyl-9-hydroxy-2,3,4,4a,5,6-hexahydro-1H-8-oxa-3-aza-benzo[d]fluoren-7-one] the Ki was 310 nM. `Oc1cccc2c1O[C@H]1CCC[C@H]3CN(CC4CC4)CC[C@@]231` [(-)-trans-3-Cyclopropylmethyl-2,3,4,4aalpha,5,6,7,7aalpha-octahydro-1H-benzo[4,5]furo[3,2-e]isoquinolin-9-ol] showed a Ki of 21 nM.
